Consider 8 molecules from ChEMBL document CHEMBL1201862, “PubChem BioAssay data set” (2004).

Among the test systems are SK-OV-3; NCI/ADR-RES; MOLT-4; A498; OVCAR-8; HT-29; MCF7; SN12C; NCI-H522; KM12; TK-10; Hs-578T; OVCAR-5; MDA-MB-435; SNB-75; M14; K562; UO-31; SNB-19; SF-539.
Holding throughout (assay): NCI anticancer screen, dose series, 48 h

Where “and” joins values, the source holds several entries; their conditions need not be identical. Equal values may be shown once.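 Results reflect a 48-hour exposure of cells in 96-well plates to compound at five concentrations. GI50 marks 50% less growth.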 Calls of active or inactive are those of the source. Rule as the data show it: active = GI50 up to about 1.1 µM and inactive = higher.

`CO/C(N)=C(C#N)/N=C/c1ccco1`: the GI50 in the test on SK-OV-3, with NCI/ADR-RES, in the test on MOLT-4, in the test with A498, in the test with OVCAR-8 and in the test with HT-29 was > 100 µM (inactive) each time. For the same molecule, the GI50 in the test with MCF7, in the test with SN12C, in the test on NCI-H522, in the test with KM12, with TK-10 and in the test on Hs-578T was > 100 µM (inactive) each time. In addition, the GI50 in the test on OVCAR-5, in the test with MDA-MB-435, in the test with SNB-75, in the test on M14, with K562 and in the test with UO-31 was > 100 µM (inactive) throughout.

Take `Cc1ccc(S(=O)(=O)n2ccn3c(=O)cc(C)nc23)cc1`: the GI50 in the test with SK-OV-3, with NCI/ADR-RES, in the test on MOLT-4, with A498, with OVCAR-8 and in the test on HT-29 was > 10 µM (inactive) throughout. Besides, the GI50 with SNB-19, with MCF7, in the test with SN12C, in the test with SF-539, with KM12 and in the test with TK-10 was > 10 µM (inactive) each time. In addition, the GI50 was 8.59 µM (inactive) in the test with Hs-578T; > 10 µM (inactive) in the test on OVCAR-5; > 10 µM (inactive) in the test with MDA-MB-435; > 10 µM (inactive) in the test on SNB-75; > 10 µM (inactive) in the test on M14; > 10 µM (inactive) in the test with K562. Further, in the test on UO-31, the GI50 is > 10 µM (inactive).

On to `COCN1C(=O)[C@@H]2C[C@@H](O)CN2C(=O)c2ccccc21`, for which the GI50 with SK-OV-3 is > 100 µM (inactive); with NCI/ADR-RES it was > 100 µM (inactive); in the test with MOLT-4, 61.7 µM (inactive); in the test on A498 it was > 100 µM (inactive); in the test on OVCAR-8, > 100 µM (inactive); in the test on HT-29, > 100 µM (inactive). Further, the GI50 in the test on SNB-19, with MCF7, in the test on SN12C, with NCI-H522, in the test on KM12 and with TK-10 was > 100 µM (inactive) each time. Moreover, the GI50 with Hs-578T, in the test on OVCAR-5, with MDA-MB-435, in the test on SNB-75, in the test on M14 and in the test with K562 was > 100 µM (inactive) throughout. In addition, the GI50 with UO-31 is > 100 µM (inactive).

On to `COc1ccc(OCc2nc3cc(C(F)(F)F)ccc3nc2-c2ccccc2)cc1`, for which the GI50 in the test with SK-OV-3 was > 100 µM (inactive); in the test on NCI/ADR-RES, > 100 µM (inactive); in the test with MOLT-4 it was > 100 µM (inactive); in the test with A498, 94.8 µM (inactive); with OVCAR-8, > 100 µM (inactive); in the test with HT-29, > 100 µM (inactive). For the same molecule, the GI50 with SNB-19, with MCF7, in the test on SN12C, with SF-539, with KM12 and with TK-10 was > 100 µM (inactive) each time. The GI50 in the test on Hs-578T, in the test with OVCAR-5, in the test on MDA-MB-435, in the test on SNB-75, with M14 and in the test on K562 was > 100 µM (inactive) throughout. Besides, the GI50 in the test with UO-31 was > 100 µM (inactive).

Turning to `[N-]=[N+]=CC(=O)OCC1NC(=O)C(COC(=O)C=[N+]=[N-])NC1=O` (stereo not drawn), the GI50 with SK-OV-3, in the test on NCI/ADR-RES, with MOLT-4, with A498, with OVCAR-8 and in the test with HT-29 was > 100 µM (inactive) in each case. Also, the GI50 in the test with SNB-19 was > 100 µM (inactive) and 72.1 µM (inactive); in the test on MCF7, > 100 µM (inactive); in the test with SN12C it was > 100 µM (inactive); in the test on SF-539, > 100 µM (inactive); with KM12, > 100 µM (inactive); in the test with TK-10, > 100 µM (inactive). Also, the GI50 with Hs-578T, in the test on OVCAR-5, with MDA-MB-435, in the test with SNB-75, in the test with M14 and in the test on K562 was > 100 µM (inactive) throughout. Further, in the test on UO-31, the GI50 was > 100 µM (inactive).

Take `C=C1CC[C@@H](C)[C@](C)(CCc2ccoc2)C/C=C\C=C/1C(=O)O`: the GI50 with SK-OV-3 was 69.2 µM (inactive); with NCI/ADR-RES, 25.7 µM (inactive); with MOLT-4 it was 27 µM (inactive); in the test with A498 it was 58.6 µM (inactive); in the test on OVCAR-8, 21 µM (inactive); in the test on HT-29 it was 36.7 µM (inactive). The GI50 with SNB-19 is > 100 µM (inactive); in the test with MCF7, 33.3 µM (inactive); in the test with SN12C, 50.5 µM (inactive); in the test on SF-539, 19.6 µM (inactive); in the test on KM12, 33.1 µM (inactive); with TK-10, > 100 µM (inactive). The GI50 is 71 µM (inactive) in the test with Hs-578T; > 100 µM (inactive) in the test on OVCAR-5; 37.6 µM (inactive) with MDA-MB-435; 80 µM (inactive) in the test with SNB-75; 32.4 µM (inactive) in the test on M14; 32.3 µM (inactive) with K562. For the same molecule, in the test with UO-31, the GI50 was 34.1 µM (inactive).

In the case of `COc1ccc2cc(CNCCCCCCCCNCc3ccc4cc(OC)ccc4c3)ccc2c1`, the GI50 is 6.65 µM (inactive) with NCI/ADR-RES; 2.77 µM (inactive) in the test on MOLT-4; 6.38 µM (inactive) in the test with A498; 6.61 µM (inactive) in the test with OVCAR-8; 2 µM (inactive) in the test with HT-29; 4.1 µM (inactive) in the test with SNB-19. Further, the GI50 with MCF7 is 4.27 µM (inactive); in the test with NCI-H522, 4.37 µM (inactive); in the test on KM12, 3.92 µM (inactive); in the test on TK-10, 3.37 µM (inactive); in the test with Hs-578T, 8.77 µM (inactive); with OVCAR-5 it was 6.9 µM (inactive). The GI50 in the test on MDA-MB-435 is 4.94 µM (inactive); in the test on SNB-75 it was 3.41 µM (inactive); in the test with M14, 1.86 µM (inactive); in the test with K562, 0.975 µM (active); in the test with UO-31, 6.78 µM (inactive).

As to `C[N+](C)(C)CCCSc1nc2ccccc2[nH]1`, the GI50 with SK-OV-3, in the test with NCI/ADR-RES, in the test on MOLT-4, in the test on A498, with OVCAR-8 and in the test with HT-29 was > 100 µM (inactive) in each case. The GI50 in the test with SNB-19, in the test on MCF7, in the test with SN12C, in the test with NCI-H522, in the test with KM12 and in the test with TK-10 was > 100 µM (inactive) in each case. Also, the GI50 with Hs-578T was > 100 µM (inactive); in the test on OVCAR-5 it was 89.7 µM (inactive); in the test on MDA-MB-435, > 100 µM (inactive); in the test with M14, > 100 µM (inactive); in the test with K562 it was > 100 µM (inactive); with UO-31, > 100 µM (inactive).
